# Measured values taken from patent US10745370B2, “Farnesyl transferase inhibitors and uses thereof” (MACKAY MEMORIAL HOSPITAL, priority 2016, dated 2020).
# Where “and” joins values, the source holds several entries; their conditions need not be identical. Identical values can stand only once.
# How the values were obtained:
# dendritic cells [1] = assay: Morphology of dendritic cells by Liu's staining; type: cell-based, human; conditions: 10 μM, seven days, FIG. 8
# Experimental: (§1) Mononuclear cells (MNCs) were separated from the peripheral blood of healthy donors obtained with written consent by use of Ficoll-Hypaque density centrifugation, followed by positive selection with magnetic anti-CD14 microbeads.
# (§2) The isolated CD14^+ cells were cultivated in Minimum Essential Medium (MEM medium) supplemented with 10% fetal bovine serum (FBS), 100 ng/ml granulocyte-macrophage colony-stimulating factor (GM-CSF, Gentaur), and 50 ng/ml interleukin-4 (IL-4, R&D), and kept in an environment of 37° C. with 5% CO2/95% air.
# (§3) To evaluate the effects of the present compound on dendritic cells, the CD14^+ cells were respectively treated with 10 μM of test compound (i.e., Mib-5, Mib-6, Mib-7, Mib-8, Mib-9, and Mib-10) on day 1. Then, on day 3, the cultured medium in each well was replenished by adding half the volume of the cultured medium containing the same treatment as indicated above. Then, on day 6, a cytokine cocktail containing IL-1, IL-6, and tumor necrosis factor-α (TNF-α) was added to induce maturation. On day 7, the differentiated dendritic cells were collected and subjected to further assays, including viability assay, morphology observation, and cell marker staining.
# (§4) Cells were transferred to a glass coverslide and covered with solution A (0.5 g of methylene blue and 1.7 g of Eosin yellow dissolved in 1,000 ml of ethanol). After 45 seconds, solution B (1.3 g of azure, 1.4 g of methylene blue, 23.38 g of Na2HPO4, 6.5 g of KH2PO4, dissolved in 1,000 ml of distilled water) was added in the proportion of 2 parts of B to 1 part of A. Mixed the solutions well by blowing the surface. The slide was left standing for 90 seconds and then washed off the staining solution rapidly by running water. The morphology of stained cells was then examined under microscope.
# (§5) In this example, the effects of the present compounds on dendritic cells were investigated. Briefly, the dendritic cells were respectively treated with 10 μM of Mib-5, Mib-6, Mib-7, Mib-8, or Mib-10. Seven days later, the cells were harvested and subjected to analysis of morphology observation, cell viability, and/or cell marker expression.
# macrophages [2] = assay: Morphology of macrophages (photographs, Liu's staining); type: cell-based, human; conditions: for morphology and adhesion of treated macrophages: 10 μM, FIG. 1 panel B; for morphology of cells by Liu's staining compared with control cells: FIG. 1 panel C
# Experimental: as §1, §2, §3
# (§6) As to the effects of the present compound on macrophages, the CD14^+ cells were cultivated and treated as indicated above except the addition of cytokine cocktail on day 6. The macrophages were collected on day 6 and subjected to further assays, including viability assay, trypan blue exclusion test, morphology observation, cell marker staining, and phagocytotic activity analysis.
# as §4
# dendritic cells [3] = assay: Cell marker expression on dendritic cells, flow cytometry; type: cell-based, human; conditions: 10 μM; for expression of CD1a, differentiation marker of dendritic cells: FIG. 9; for expression of CD83, maturation marker of dendritic cells: FIG. 10
# Experimental: as §1, §2, §3
# (§7) The expression of various types of cell markers, such as CD14, CD206, and CD80 expressed on the surface of macrophages, and CD1a, CD14, CD83, and HLA-DR expressed on the dendritic cells, were respectively detected by fluorescein isothiocyanate (FITC) and phycoerythrin (PE)-conjugated monoclonal antibodies in FACS caliber flowcytometer. Monoclonal antibodies used in this examples included anti-CD14 (IgG-FITC), anti-CD206 (IgG-FITC), anti-CD80-PE, anti-CD1a-PE, anti-CD83-PE and anti-human leukocyte antigen (HLA)-DR-PE. Results were analyzed by CellQuest software.
# as §5
# dendritic cells [4] = assay: Trypan blue exclusion analysis of dendritic cells; type: cell-based, human; conditions: 10 μM, seven days, FIG. 7
# Experimental: as §1, §2, §3
# The dye exclusion test is used to determine the number of viable cells present in a cell suspension. […] In this test, the cells were first treated with a test compound (i.e., Mib-5, 6, 7, 8, 9 or 10) for a certain period of time (e.g., 72 hours), then the cells were harvested and re-suspended in suitable buffer solution. The cell suspension was then mixed with trypan blue dye and then visually examined to determine whether cells had taken up or excluded the dye. A viable cell will have a clear cytoplasm, whereas a nonviable cell will have a blue cytoplasm. The concentration required to reduce viability by 50% (IC50) after 72 hours was extrapolated from the dose-response curves by different concentrations of the test compound using a second-order polynomial regression model and analyzing with SigmaPlot Software (Systat Software Inc., San Jose, Calif.).
# as §5
# macrophages [5] = assay: Cell marker expression on macrophages (total), flow cytometry; type: cell-based, human; conditions: for total expressed level of CD14: FIG. 3; for level of CD206: FIG. 5; for total level of CD80: compared with the control
# Experimental: as §1, §2, §3, §6, §7
# macrophages [6] = assay: Phagocytosis assay with fluorescent latex beads; type: cell-based, human; conditions: M1 and/or M2 populations, FIG. 6
# Experimental: as §6
# The phagocytic activity of macrophages was measured by using flow cytometric analysis. The green fluorescent latex beads (carboxylate-modified beads with diameter 2 μm) were suspended in PBS solution and added into macrophage culture for 2 hours with vortexa at 37° C. The macrophages were subjected to flow cytometry for measurement of fluorescent intensity
# rat PFTase = molecular target: T1, rat PFTase (Rattus norvegicus, UniProt Q02293+Q04631); assay: Inhibition of farnesyl transferase (fluorescence assay); type: biochemical; conditions: mean ± SD of three independent experiments
# T1 construct: purchased Jena Biosciences
# Experimental: The assay was carried out in 384-well microplates with a final volume of 20 μl by the method modified from the previous report (Long et al., 2009). Briefly, 10 nM of rat PFTase (Jena Biosciences, Jena, Germany) was incubated with the tested compound or DMSO (1%) for 15 min, and then the mixture was added in a solution (50 mM Tris-HCl, pH 7.5, 5 mM MgCl2, 5 mM DTT, 0.1 mM ZnCl2, 0.2% octyl-β-D-glucopyranoside (Sigma, St. Louis, Mo.), 10 μM PFTase substrate dansyl-Gly-Cys-Val-Leu-Ser-OH, and 10 μM farnesyl pyrophosphate (Sigma, St. Louis, Mo.)) to initiate the reaction. The reaction was incubated at 37° C. for 30 min, and the fluorescence was detected by a M5 plate reader (Molecular Devices, CA, USA) at 340 nm excitation and 505 nm emission.
# M2 macrophages = assay: Differentiation analysis, cell viability of M2 macrophages; type: cell-based, human; conditions: for Cell viability of M2 macrophages: IL-4-induced M2 differentiation, 6 days, control 100%
# Experimental: (§8) M1 differentiation of freshly isolated CD14^+ cells was induced by the addition of lipopolysaccharide (LPS), while M2 differentiation of freshly isolated CD14^+ cells was induced by the addition of IL-4. Then, the present compounds (e.g., Mib-5, 6, 7, 8, 9, or 10) were added at the indicated dosages. 6 days later, the population of the differentiated macrophages were then determined by cell viability analysis. The cell viability was measured by cell counting kit-8 (CCK-8, Sigma). The half maximal inhibitory concentrations (IC50) of the test compounds on macrophages or dendritic cells were calculated.
# M1 macrophages = assay: Differentiation analysis, cell viability of M1 macrophages; type: cell-based, human; conditions: for Cell viability of M1 macrophages: LPS-induced M1 differentiation, 6 days, control 100%; for change in M1 population of macrophages compared with control: Table 4
# Experimental: as §8
Structure (SMILES),dendritic cell morphology compared with control group (dendritic cells [1]),morphology and adhesion of treated macrophages (macrophages [2]),morphology of cells by Liu's staining compared with control cells (macrophages [2]),"expression of CD1a, differentiation marker of dendritic cells (dendritic cells [3])","expression of CD83, maturation marker of dendritic cells (dendritic cells [3])",levels of viable dendritic cells (dendritic cells [4]),total expressed level of CD14 (macrophages [5]),level of CD206 (macrophages [5]),total level of CD80 (macrophages [5]),phagocytic activity compared with control (macrophages [6]),IC50 (rat PFTase),Cell viability of M2 macrophages (M2 macrophages) [%],change in M2 population of macrophages compared with control (M2 macrophages; Table 4),Cell viability of M1 macrophages (M1 macrophages) [%],change in M1 population of macrophages compared with control (M1 macrophages),"increase of M2 population (M2 macrophages; compared with control, Table 4)"
COC1=CC(=O)[C@@]2(c3cc(=O)c4ccc(OC)cc4o3)[C@H](C[C@]3(C)[C@@H](C(=O)O)CC=C4[C@H]3CCCC4(C)C)C(C)=CC[C@H]2C1=O [Mib-5],"cell death reflected in morphology changes, and less dendritic process","became rounded up, and were less adhesive",not significantly affected,inhibited,inhibited,reduced,not affected,increase,significantly reduced,reduced,< 10 µM and 7.51 µM,86.4,slight decrease,63.5,significant reduction,
COC1=CC(=O)[C@@]2(c3cc(=O)c4c(O)cc(O)cc4o3)[C@H](C[C@]3(C)[C@@H](C(=O)O)CC=C4[C@H]3CCCC4(C)C)C(C)=CC[C@H]2C1=O [Mib-7],"cell death reflected in morphology changes, and less dendritic process","became rounded up, and were less adhesive",not significantly affected,inhibited,inhibited,reduced,not affected,increase,significantly reduced,reduced,< 10 µM and 8.46 µM,136.4,,82.5,decrease,about 40%
